Tests used:
[1] = test system: MDA-MB-435; experiment: In vivo percent T/C against MDA-MB-435 human breast carcinoma cells implanted sc in mice at a dose 52 umol/Kg; type: functional
[2] = test system: MDA-MB-435; experiment: In vivo for percent body weight against MDA-MB-435 human breast carcinoma cells implanted sc in mice at a dose 26 umol/kg; type: functional
[3] = test system: MDA-MB-435; experiment: (§1) Antiproliferative activity against MDA-MB-435 human breast carcinoma cells in vitro using MDA-MB-435 monolayer growth assay.; type: functional, cell-based
[4] = test system: MDA-MB-435; experiment: In vivo percent T/C against MDA-MB-435 human breast carcinoma cells implanted sc in mice at a dose 26 umol/kg; type: functional
[5] = test system: MDA-MB-435; experiment: In vivo for percent body weight against MDA-MB-435 human breast carcinoma cells implanted sc in mice at a dose 52 umol/Kg; type: functional
[6] = test system: MDA-MB-435; experiment: In vivo percent body weight versus MDA-MB-435 human breast carcinoma cells implanted sc in mice at a dose 10 umol/kg; type: functional
[7] = test system: MDA-MB-435; experiment: In vivo percent body weight versus MDA-MB-435 human breast carcinoma cells implanted sc in mice at a dose 33 umol/Kg; type: functional
[8] = test system: MDA-MB-435; experiment: as §1; type: functional
[9] = test system: MDA-MB-435; experiment: In vivo percent T/C against MDA-MB-435 human breast carcinoma cells implanted sc in mice at a dose 33 umol/Kg; type: functional
[10] = test system: MDA-MB-435; experiment: In vivo percent T/C against MDA-MB-435 human breast carcinoma cells implanted sc in mice at a dose 10 umol/kg; type: functional
[11] = test system: MDA-MB-435; experiment: In vivo for percent body weight against MDA-MB-435 human breast carcinoma cells implanted sc in mice at a dose 100 umol/Kg; type: functional
[12] = test system: MDA-MB-435; experiment: In vivo percent T/C against MDA-MB-435 human breast carcinoma cells implanted sc in mice at a dose 100 umol/kg; type: functional
[13] = test system: MDA-MB-435; experiment: In vivo for percent body weight against MDA-MB-435 human breast carcinoma cells implanted sc in mice at a dose m100 umol/Kg; type: functional
[14] = test system: MDA-MB-435; experiment: In vivo percent T/C against MDA-MB-435 human breast carcinoma cells implanted sc in mice at a dose 100 umol/Kg; type: functional
[15] = test system: MDA-MB-435; experiment: In vivo for percent body weight against MDA-MB-435 human breast carcinoma cells implanted sc in mice at a dose 84 umol/kg; type: functional
[16] = test system: MDA-MB-435; experiment: In vivo for percent body weight against MDA-MB-435 human breast carcinoma cells implanted sc in mice at a dose 279 umol/Kg; type: functional
[17] = test system: MDA-MB-435; experiment: In vivo percent T/C against MDA-MB-435 human breast carcinoma cells implanted sc in mice at a dose 28 umol/kg; type: functional
[18] = test system: MDA-MB-435; experiment: In vivo percent T/C against MDA-MB-435 human breast carcinoma cells implanted sc in mice at a dose 279 umol/Kg; type: functional
[19] = test system: MDA-MB-435; experiment: In vivo percent T/C against MDA-MB-435 human breast carcinoma cells implanted sc in mice at a dose 84 umol/Kg; type: functional
[20] = test system: MDA-MB-435; experiment: In vivo for percent body weight against MDA-MB-435 human breast carcinoma cells implanted sc in mice at a dose 28 umol/kg; type: functional
[21] = test system: MDA-MB-435; experiment: In vivo for percent body weight against MDA-MB-435 human breast carcinoma cells implanted sc in mice at a dose 2 umol/kg; type: functional
[22] = test system: MDA-MB-435; experiment: In vivo percent T/C against MDA-MB-435 human breast carcinoma cells implanted sc in mice at a dose 2 umol/kg; type: functional

For `CO[C@@H](C(=O)NC1CC[C@H](O)CN(C)C1=O)[C@H](O)[C@@H](O)[C@H](O)/C=C/C(C)C` (stereo partly specified), the T/C [1] was 41%, the Body weight [2] was 9.5% and the IC50 [3] was 2900 nM. The T/C [4] was 42% and the Body weight [5] was 0.8%.
`CO[C@@H](C(=O)NC1CC[C@@H](OC(=O)C2CCCCCC2)CNC1=O)[C@H](O)[C@@H](O)[C@H](O)/C=C/C(C)(C)C` (stereo partly specified) showed a Body weight [6] of 10.1%, a Body weight [7] of 8.4% and an IC50 [8] of 20 nM. For the same compound, the T/C [9] was under 28% and the T/C [10] was under 39%.
Work on `CO[C@@H](C(=O)NC1CC[C@@H](OC(=O)C2CCCCC2)CNC1=O)[C@H](O)[C@@H](O)[C@H](O)/C=C/C(C)(C)C` (stereo partly specified) yielded a Body weight [6] of 10.5%, a Body weight [7] of 3.5% and a Body weight [11] of -2.6%. For the same compound, the IC50 [8] was 4 nM, the T/C [12] was under 29% and the T/C [9] was under 7%. It also gave a T/C [10] of under 58%.
For `CO[C@@H](C(=O)NC1CC[C@@H](OC(=O)CCc2ccccc2)CNC1=O)[C@H](O)[C@@H](O)[C@H](O)/C=C/C(C)(C)C` (stereo partly specified), the Body weight [6] was 6%, the Body weight [13] was -3.1% and the Body weight [7] was 5.3%. It also gave an IC50 [8] of 10 nM, a T/C [14] of under 58% and a T/C [9] of under 12%. It also gave a T/C [10] of under 53%.
For `CO[C@@H](C(=O)NC1CCCCN(C)C1=O)[C@H](O)[C@@H](O)[C@H](O)/C=C/C(C)C` (stereo partly specified), the IC50 [3] was 2900 nM.
In the case of `CCCCCCCCCCCCCOC(=O)[C@H]1CCC(NC(=O)[C@H](OC)[C@H](O)[C@@H](O)[C@H](O)/C=C/C(C)C)C(=O)NC1` (stereo partly specified), the IC50 [3] is reported as 1 nM.
`CO[C@@H](C(=O)NC1CC[C@@H](OC(=O)Cc2cccnc2)CNC1=O)[C@H](O)[C@@H](O)[C@H](O)/C=C/C(C)(C)C` (stereo partly specified) gave a Body weight [6] of 6.4%, a Body weight [7] of 6.8% and an IC50 [8] of 5850 nM. It also gave a T/C [9] of 82% and a T/C [10] of 69%.
`CO[C@@H](C(=O)NC1CC[C@@H](OC(=O)CCc2cccnc2)CNC1=O)[C@H](O)[C@@H](O)[C@H](O)/C=C/C(C)(C)C` (stereo partly specified) showed a Body weight [6] of 10.1%, a Body weight [7] of 3% and an IC50 [8] of 460 nM. For the same compound, the T/C [9] was under 44% and the T/C [10] was 92%.
`CCCCCCCCCCc1ccc(C(=O)O[C@@H]2CCC(NC(=O)[C@H](OC)[C@H](O)[C@@H](O)[C@H](O)/C=C/C(C)(C)C)C(=O)NC2)cc1` (stereo partly specified) showed a Body weight [6] of 6%, a Body weight [7] of 2.6% and an IC50 [8] of 30 nM. It also gave a T/C [9] of under 6% and a T/C [10] of 76%.
`CO[C@@H](C(=O)NC1CC[C@@H](OC(=O)c2ccccc2)CNC1=O)[C@H](O)[C@@H](O)[C@H](O)/C=C/C(C)(C)C` (stereo partly specified) was tested, and the Body weight [6] was 5.5%, the Body weight [7] was 5.6% and the IC50 [8] was 370 nM. It also gave a T/C [9] of 80% and a T/C [10] of 93%.
In the case of `CCCCCc1ccc(C(=O)O[C@@H]2CCC(NC(=O)[C@H](OC)[C@H](O)[C@@H](O)[C@H](O)/C=C/C(C)(C)C)C(=O)NC2)cc1` (stereo partly specified), the Body weight [6] is reported as 6%, the Body weight [7] is reported as 2.6% and the IC50 [8] is reported as 20 nM. It also gave a T/C [9] of 91% and a T/C [10] of 111%.
`CO[C@@H](C(=O)NC1CC[C@@H](OC(=O)C2CCCC2)CNC1=O)[C@H](O)[C@@H](O)[C@H](O)/C=C/C(C)(C)C` (stereo partly specified) showed a Body weight [6] of 7.6%, a Body weight [7] of 3% and an IC50 [8] of 130 nM. The T/C [9] was under 13% and the T/C [10] was 67%.
For `CO[C@@H](C(=O)NC1CC[C@@H](OC(=O)/C=C/c2ccccc2)CNC1=O)[C@H](O)[C@@H](O)[C@H](O)/C=C/C(C)(C)C` (stereo partly specified), the Body weight [6] was 7.4%, the Body weight [7] was 7.5% and the IC50 [8] was 20 nM. For the same compound, the T/C [9] was under 63% and the T/C [10] was under 64%.
Work on `CCCCCCCCCCCCCC(=O)O[C@H]1CCC(NC(=O)[C@H](OC)[C@H](O)[C@@H](O)[C@H](O)/C=C/C(C)(C)C)C(=O)N(C)C1` (stereo partly specified) yielded a Body weight [6] of 6.1%, a Body weight [7] of 6.4% and an IC50 [8] of 10 nM. The T/C [9] was under 46% and the T/C [10] was under 58%.
`CCCCCCCCCCOc1ccc(C(=O)O[C@@H]2CCC(NC(=O)[C@H](OC)[C@H](O)[C@@H](O)[C@H](O)/C=C/C(C)(C)C)C(=O)NC2)cc1` (stereo partly specified) gave a Body weight [6] of 8.8%, a Body weight [7] of -0.9% and an IC50 [8] of 10 nM. For the same compound, the T/C [9] was 2% and the T/C [10] was under 64%.
`CO[C@@H](C(=O)NC1CC[C@@H](OC(=O)CC2CCCCC2)CNC1=O)[C@H](O)[C@@H](O)[C@H](O)/C=C/C(C)(C)C` (stereo partly specified) was tested, and the Body weight [6] was 4.6%, the Body weight [7] was 3.5% and the IC50 [8] was 60 nM. The T/C [9] was under 34% and the T/C [10] was under 47%.
`CO[C@@H](C(=O)NC1CC[C@@H](OC(=O)Cc2ccccc2)CNC1=O)[C@H](O)[C@@H](O)[C@H](O)/C=C/C(C)(C)C` (stereo partly specified) gave a Body weight [6] of 10.6%, a Body weight [7] of 3.9% and an IC50 [8] of 260 nM. The T/C [9] was under 43% and the T/C [10] was 72%.
For `CCCCCCCCCCCCCC(=O)O[C@@H]1CCC(NC(=O)[C@H](OC)[C@H](O)[C@@H](O)[C@H](O)/C=C/C(C)(C)C)C(=O)NC1` (stereo partly specified), the Body weight [6] was 7.4%, the Body weight [7] was 5.7% and the IC50 [8] was under 10 nM. For the same compound, the T/C [9] was under 4% and the T/C [10] was under 41%.
In the case of `CO[C@@H](C(=O)NC1CCCCNC1=O)[C@H](O)[C@@H](O)[C@H](O)/C=C/C(C)C` (stereo partly specified), the IC50 [3] is reported as 3300 nM, the Body weight [15] is reported as 7.1% and the Body weight [16] is reported as 6.7%. The T/C [17] was 62%, the T/C [18] was under 19% and the T/C [19] was 62%. It also gave a Body weight [20] of 8.4%.
For `COc1cccc2c1C(=O)c1c(O)c3c(c(O)c1C2=O)C[C@@](O)(C(=O)CO)C[C@@H]3O[C@H]1C[C@H](N)[C@H](O)[C@H](C)O1` [DOXORUBICIN], the IC50 [8] was 400 nM, the Body weight [21] was 3.9% and the T/C [22] was under 44%.

— ChEMBL document CHEMBL1134665, “Synthesis and antitumor activity of ester-modified analogues of bengamide B” (J Med Chem, 2001)
